# From PMC6155732, “Development of a UPLC-TQ/MS Approach for the Determination of Eleven Bioactive Components in Haizao Yuhu Decoction Plus-Minus Haizao and Gancao Drug Combination after Oral Administration in a Rat Model of Hypothyroidism” (Molecules : A Journal of Synthetic Chemistry and Natural …, 2016)
# Columns and labels:
# [1] = Pharmacokinetics of compounds 1–11 in rat plasma (UPLC-TQ/MS) after oral administration of HYD and plus-minus Haizao/Gancao decoctions; assay type: in vivo, Wistar rats (PTU-induced model of hypothyroidism); details: Wistar, model rats, n = 6, mean ± S.D.
# Protocol: Plasma samples (200 μL) and IS solution (50 μL, 1215 ng/mL for diphenhydramine, 476 ng/mL for chloromycetin) were added to an Eppendorf tube, and this mixture was extracted with methanol (550 μL) by shaking on a vortex-mixer for 2 min, and centrifuged for 10 min at 13,000 rpm. The contents were evaporated to dryness in a rotary evaporator at 37 °C. The residue was reconstituted in methanol (100 μL) and centrifuged (13,000 rpm for 10 min). The supernatant was transferred to an autosample vial and an aliquot of 5 μL was injected onto the UPLC-MS/MS system for analysis.
# The developed and validated method was used to evaluate the pharmacokinetics of the eleven compounds after oral administration of different fractions in […] (Figure 3). […] The pharmacokinetic parameters including half-life (T1/2), maximum plasma concentration (Cmax), time to reach the maximum concentration (Tmax), and area under concentration–time curve (AUC0~t) were calculated by a non-compartment model and are shown in Table 6.
# A considerable increase in thyroid stimulating hormone (TSH) and decrease in triiodothyronine (T3) and tetraiodothyronine (T4) in serum are considered to be markers of successful hypothyroid rat model preparation. PTU is the classic drug used to replicate hypothyroidism in rat models. It is generally thought that PTU can decrease the level of thyroid hormone in a hypothyroid rat model by inhibiting the activity of TPO [31, 32]. Model Wistar rats were administered PTU intragastrically at a dose of 10 mg/kg (QD) for 2 weeks to establish hypothyroidism. Serum from model rats was collected on the last day of PTU administration and the T3, T4 and TSH levels were determined using test kits. Wistar rats with a considerable increase in […] and a decrease in serum T3 and T4 were considered to have hypothyroidism and were selected for subsequent pharmacokinetic studies.
# For the pharmacokinetic studies, model Wistar rats were divided into six groups (n = 6 per group). Rats in the model HYD groups were administered HYD at a dose of 12 mL/kg intragastrically. In the model HYD-GC groups, HYD-GC (11 mL/kg) was administered. In the model HYD-HZ groups, HYD-HZ (11 mL/kg) was administered. In the model HYD-GC-HZ groups, HYD-GC-HZ (10 mL/kg) was administered. In the model GH groups, GH (2 mL/kg) was administered. In the model GC groups, GC (1 mL/kg) was administered. Blood samples were collected at specific time points before (0 min) and after oral administration (5, 10, 20, 40, 60, 120, 240, 480, 720, 1440 min). A total of 360 blood samples were collected. All blood samples were immediately centrifuged at 2500 rpm for 10 min to obtain plasma, which was labeled and frozen at −80 °C until analysis. Blank plasma was obtained from the rats without oral administration and was used to investigate the assay development and validation.
# To determine the pharmacokinetic parameters of compounds 1–11 in different groups, concentration–time data were analyzed by DAS 3.2 software (Mathematical Pharmacology Professional Committee of China, Shanghai, China, 2011). Data were expressed as the mean and standard deviation (S.D.) with triplicate measurements. The identification of significant differences between different groups was carried out using the Student’s t-test. A p value < 0.05 was considered statistically significant.
# CYP2C19 = tested on: CYP2C19; set-up: method as in PMID 21462897; details: cited from earlier work
# CYP2C9 = tested on: CYP2C9; set-up: method as in PMID 21462897; details: cited from earlier work
# CYP3A4 = tested on: CYP3A4; set-up: method as in PMID 21462897; details: cited from earlier work
# [2] = 1 mL/kg, group GC (extract of Gancao), 1 mL/kg intragastrically
# [3] = 2 mL/kg, group GH (extract of Gancao and Haizao), 2 mL/kg intragastrically
# [4] = 11 mL/kg, group HYD-HZ (HYD minus Haizao), 11 mL/kg intragastrically
# [5] = 12 mL/kg, group HYD, 12 mL/kg intragastrically
# [6] = 10 mL/kg, group HYD-GH (HYD minus Gancao and Haizao; HYD-GC-HZ), 10 mL/kg intragastrically
# [7] = 11 mL/kg, group HYD-GC (HYD minus Gancao), 11 mL/kg intragastrically
"AUC(0-t) [1, 2] [ng·h/mL]","Cmax [1, 2] [ng/mL]","Tmax [1, 2] [h]","half-life [1, 2] [h]","AUC(0-t) [1, 3] [ng·h/mL]","Cmax [1, 3] [ng/mL]","Tmax [1, 3] [h]","half-life [1, 3] [h]","AUC(0-t) [1, 4] [ng·h/mL]","Cmax [1, 4] [ng/mL]","Tmax [1, 4] [h]","half-life [1, 4] [h]","AUC(0-t) [1, 5] [ng·h/mL]","Cmax [1, 5] [ng/mL]","Tmax [1, 5] [h]","half-life [1, 5] [h]","AUC(0-t) [1, 6] [ng·h/mL]","Cmax [1, 6] [ng/mL]","Tmax [1, 6] [h]","half-life [1, 6] [h]",Compound,also measured
–,–,–,–,–,–,–,–,2290 ± 55.5,322 ± 88.2,0.19 ± 0.07,16.2 ± 7.06,2870 ± 285,1000 ± 178,0.67,6.03 ± 1.95,1180 ± 539,311 ± 126,0.46 ± 0.37,3.26 ± 3.53,"COc1ccc(-c2cc(=O)c3c(OC)c(OC)c(OC)c(OC)c3o2)cc1OC [Compound 9, nobiletin]","AUC(0-t) [1, 7]: 2010 ± 1020 ng·h/mL; Cmax [1, 7]: 501 ± 183 ng/mL; Tmax [1, 7]: 0.89 ± 0.27 h; half-life [1, 7]: 4.53 ± 1.89 h"
–,–,–,–,–,–,–,–,295 ± 117,295 ± 117,0.61 ± 0.25,1.45 ± 1.11,748 ± 225,458 ± 184,0.61 ± 0.14,1.25 ± 0.03,98.5 ± 41,69.2 ± 25.6,0.53 ± 0.31,0.68 ± 0.49,"COc1ccc2ccc(=O)oc2c1CC=C(C)C [Compound 10, osthole]","AUC(0-t) [1, 7]: 205 ± 94.7 ng·h/mL; Cmax [1, 7]: 101 ± 31.9 ng/mL; Tmax [1, 7]: 0.39 ± 0.14 h; half-life [1, 7]: 1.54 ± 0.51 h"
10500,776 ± 184,10 ± 2.31,4.66 ± 5.33,22800,1250 ± 210,12.7 ± 5.89,1.93 ± 0.04,12700,756 ± 58.1,12,1.99 ± 0.03,9990 ± 1660,504 ± 101,9.33 ± 2.07,3.01 ± 2.35,–,–,–,–,"CC1(C)[C@@H](O)CC[C@]2(C)[C@H]3C(=O)C=C4[C@@H]5C[C@@](C)(C(=O)O)CC[C@]5(C)CC[C@@]4(C)[C@]3(C)CC[C@@H]12 [Compound 11, glycyrrhetinic acid]",inhibitory potencies on CYP2C19 enzyme activity (CYP2C19): up to 50%; inhibitory potencies on CYP2C9 enzyme activity (CYP2C9): up to 50%; inhibitory potencies on CYP3A4 enzyme activity (CYP3A4): up to 50%
–,–,–,–,–,–,–,–,649 ± 132,192 ± 54.5,0.81 ± 0.34,1.92 ± 1.75,819 ± 25.7,227 ± 57.8,0.33 ± 0.21,1.56 ± 1.02,786 ± 369,125 ± 35.6,0.11 ± 0.04,9.6 ± 10.6,"COc1c2ccoc2cc2oc(=O)ccc12 [Compound 8, bergapten]","AUC(0-t) [1, 7]: 470 ± 130 ng·h/mL; Cmax [1, 7]: 183 ± 47 ng/mL; Tmax [1, 7]: 0.61 ± 0.14 h; half-life [1, 7]: 1.17 ± 0.1 h"

# More lines, now with the values behind:
Compound,"AUC(0-t) [1, 2] [ng·h/mL]","Cmax [1, 2] [ng/mL]","Tmax [1, 2] [h]","half-life [1, 2] [h]","AUC(0-t) [1, 3] [ng·h/mL]","Cmax [1, 3] [ng/mL]","Tmax [1, 3] [h]","half-life [1, 3] [h]","AUC(0-t) [1, 4] [ng·h/mL]","Cmax [1, 4] [ng/mL]","Tmax [1, 4] [h]","half-life [1, 4] [h]","AUC(0-t) [1, 5] [ng·h/mL]","Cmax [1, 5] [ng/mL]","Tmax [1, 5] [h]","half-life [1, 5] [h]","AUC(0-t) [1, 6] [ng·h/mL]","Cmax [1, 6] [ng/mL]","Tmax [1, 6] [h]","half-life [1, 6] [h]",also measured
"O=C1C[C@@H](c2ccc(O[C@@H]3O[C@H](CO)[C@@H](O)[C@H](O)[C@H]3O)cc2)Oc2cc(O)ccc21 [Compound 1, liquiritin]",229 ± 119,147 ± 37.7,0.67,0.99 ± 0.34,2510 ± 814,254 ± 122,0.17,1.34 ± 1.48,987 ± 567,494 ± 165,0.31 ± 0.07,3.66 ± 3.3,1760 ± 287,1600 ± 595,0.19 ± 0.11,9.23 ± 5.85,–,–,–,–,–
"O=C1C[C@@H](c2ccc(O)cc2)Oc2cc(O)ccc21 [Compound 6, liquiritigenin]",1000 ± 946,220 ± 47.4,2.5 ± 1.73,2.41 ± 1.57,681 ± 771,211 ± 70.3,1.5 ± 1.23,4.12 ± 3.73,2150 ± 629,276 ± 66.5,0.79 ± 1.58,3.94 ± 0.59,–,358 ± 91.9,2.75 ± 4.07,4.05 ± 0.77,–,–,–,–,–
"CC1(C)[C@@H](O[C@H]2O[C@H](C(=O)O)[C@@H](O)[C@H](O)[C@H]2O[C@@H]2O[C@H](C(=O)O)[C@@H](O)[C@H](O)[C@H]2O)CC[C@]2(C)[C@H]3C(=O)C=C4[C@@H]5C[C@@](C)(C(=O)O)CC[C@]5(C)CC[C@@]4(C)[C@]3(C)CC[C@@H]12 [Compound 7, glycyrrhizic acid]",1760 ± 1430,607 ± 137,1.25 ± 0.5,4.47 ± 2.63,3600 ± 1840,1350 ± 322,0.56 ± 0.4,9.94 ± 8.89,587 ± 261,587 ± 261,0.67 ± 0.42,1.84 ± 1.82,1690 ± 639,1370 ± 712,0.292 ± 0.1,1.58 ± 1.01,–,–,–,–,–
"C[C@@H]1O[C@@H](O[C@H]2[C@H](Oc3cc(O)c4c(c3)O[C@H](c3ccc(O)cc3)CC4=O)O[C@H](CO)[C@@H](O)[C@@H]2O)[C@H](O)[C@H](O)[C@H]1O [Compound 2, naringin]",–,–,–,–,–,–,–,–,1060 ± 244,463 ± 194,0.5 ± 0.18,2.59 ± 2.02,912 ± 198,612 ± 200,0.17 ± 0.09,11.3 ± 4.86,565 ± 352,424 ± 188,0.15 ± 0.1,1.23 ± 0.15,"AUC(0-t) [1, 7]: 561 ± 278 ng·h/mL; Cmax [1, 7]: 271 ± 75.4 ng/mL; Tmax [1, 7]: 0.19 ± 0.07 h; half-life [1, 7]: 1.12 ± 0.28 h"
